# Results taken from ChEMBL document CHEMBL1201862, “PubChem BioAssay data set” (2004).
# Active and inactive are the calls of the source.
# Assays:
# Paired box protein Pax-8 = Paired box protein Pax-8 (Homo sapiens, UniProt Q06710); assay: inhibitors of PAX8-driven TPO luciferase reporter, dose response, RMG-I cells, cherry-pick (AID 687027); type: functional, cell-based;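 also: luciferase reporter driven by Pax8 target thyroperoxidase promoter measured by SteadyGlo luminescence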
# [1] = NIH:OVCAR-3 ovarian cancer cell cytotoxicity, dose response, PAX8 inhibitor project, plate reader, dry powder samples (AID 743044); type: functional, cell-based
# [2] = IOSE-T80 ovarian epithelial cell cytotoxicity, dose response, cytotoxicity control for PAX8 inhibitor project, plate reader, dry powder samples (AID 743045); type: functional, cell-based
# [3] = cytotoxicity in OVCAR8 ovarian cancer cells, dose response, PAX8 project, cell-based, plate reader, dry powder samples (AID 743197); type: functional; conditions: OVCAR-8
# [4] = HEK293 cell cytotoxicity, dose response, cytotoxicity control, dry powder samples (AID 720567); type: functional, cell-based
# [5] = TRPM1 promoter luciferase reporter signal decrease, dose response, MITF inhibitor project, cell-based, SK-MEL-5, dry powder, set 8 (AID 624430); type: functional
# [6] = MITF: Counter assay: A375 proliferation Measured in Cell-Based System Using Plate Reader - 2084-03_Inhibitor_Dose_DryPowder_Activity_Set8.; type: functional; conditions: A-375
# [7] = MITF Orthogonal Assay: SK-MEL-5 CTG Assay Measured in Cell-Based System Using Plate Reader - 2084-02_Inhibitor_Dose_DryPowder_Activity_Set7.; type: functional
# [8] = IGROV1 ovarian cancer cell cytotoxicity, dose response, PAX8 inhibitor project, plate reader, dry powder samples (AID 743043); type: functional, cell-based; conditions: IGROV-1
# [9] = HEK293T cell cytotoxicity, dose response, cytotoxicity control, luminescence plate reader, powder samples, set 4 (AID 651863); type: functional, cell-based; conditions: HEK293
# cells = type: functional, cell-based
# [10] = Counterscreen for activators of the function of SWI/SNF related, matrix associated, actin dependent regulator of chromatin, subfamily a, member 2 (SMARCA2, BRM): Luminescence-based cell-based high throughput dose response assay to identify non-selective compounds using the VP16 reporter assay.; type: functional
# [11] = target: SWI/SNF-related matrix-associated actin-dependent regulator of chromatin subfamily A member 2 (Homo sapiens, UniProt P51531); assay: Luminescence-based cell-based high throughput dose response assay to identify activators of the function of SWI/SNF related, matrix associated, actin dependent regulator of chromatin, subfamily a, member 2 (SMARCA2, BRM).; type: functional
# Sequence of SWI/SNF-related matrix-associated actin-dependent regulator of chromatin subfamily A member 2 (P51531 whole entry): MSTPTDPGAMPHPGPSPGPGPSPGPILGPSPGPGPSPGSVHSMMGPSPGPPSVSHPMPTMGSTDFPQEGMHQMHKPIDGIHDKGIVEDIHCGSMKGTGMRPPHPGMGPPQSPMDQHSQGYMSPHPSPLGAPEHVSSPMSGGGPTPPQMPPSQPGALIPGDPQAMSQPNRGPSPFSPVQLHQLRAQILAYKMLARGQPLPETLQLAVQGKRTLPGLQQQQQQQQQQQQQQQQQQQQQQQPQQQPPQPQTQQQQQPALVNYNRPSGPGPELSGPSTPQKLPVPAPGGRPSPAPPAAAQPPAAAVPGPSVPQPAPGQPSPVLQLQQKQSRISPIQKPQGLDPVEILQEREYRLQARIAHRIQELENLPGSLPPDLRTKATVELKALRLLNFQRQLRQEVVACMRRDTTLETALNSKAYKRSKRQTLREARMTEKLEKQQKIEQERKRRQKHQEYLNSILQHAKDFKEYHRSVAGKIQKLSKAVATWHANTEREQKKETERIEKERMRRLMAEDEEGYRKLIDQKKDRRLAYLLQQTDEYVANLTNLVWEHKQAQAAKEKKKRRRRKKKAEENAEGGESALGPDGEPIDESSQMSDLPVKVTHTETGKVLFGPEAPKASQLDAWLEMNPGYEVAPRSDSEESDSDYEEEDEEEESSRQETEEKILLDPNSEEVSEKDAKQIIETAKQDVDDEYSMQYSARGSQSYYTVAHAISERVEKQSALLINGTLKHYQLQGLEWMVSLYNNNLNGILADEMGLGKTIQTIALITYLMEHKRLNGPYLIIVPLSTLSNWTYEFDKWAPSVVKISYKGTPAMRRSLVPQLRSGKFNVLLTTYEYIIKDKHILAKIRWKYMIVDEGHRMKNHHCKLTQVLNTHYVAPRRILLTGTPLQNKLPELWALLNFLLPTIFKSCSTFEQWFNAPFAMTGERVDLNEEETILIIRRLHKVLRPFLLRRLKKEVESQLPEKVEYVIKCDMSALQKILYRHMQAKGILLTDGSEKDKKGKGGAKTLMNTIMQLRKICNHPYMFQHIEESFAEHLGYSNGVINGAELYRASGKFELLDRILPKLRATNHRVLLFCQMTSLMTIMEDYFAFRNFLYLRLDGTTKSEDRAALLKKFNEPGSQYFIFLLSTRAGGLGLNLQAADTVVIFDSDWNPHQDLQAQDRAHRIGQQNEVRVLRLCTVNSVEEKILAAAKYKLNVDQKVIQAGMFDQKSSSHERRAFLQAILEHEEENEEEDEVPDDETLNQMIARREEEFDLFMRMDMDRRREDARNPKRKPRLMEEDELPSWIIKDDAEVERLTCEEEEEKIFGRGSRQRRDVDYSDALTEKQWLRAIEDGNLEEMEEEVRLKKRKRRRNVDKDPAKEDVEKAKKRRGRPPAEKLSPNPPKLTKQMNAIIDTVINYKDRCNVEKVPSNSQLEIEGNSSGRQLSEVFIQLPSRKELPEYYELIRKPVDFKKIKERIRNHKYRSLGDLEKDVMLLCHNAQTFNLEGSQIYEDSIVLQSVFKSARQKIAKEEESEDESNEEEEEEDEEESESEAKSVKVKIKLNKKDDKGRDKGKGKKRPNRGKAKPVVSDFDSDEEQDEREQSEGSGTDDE
# [12] = target: T1, Nuclear receptor subfamily 0 group B member 1 (Homo sapiens, UniProt P51843); type: functional, cell-based;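 also: HEK293T cells transfected with SF-1 and DAX-1 plus StAR promoter luciferase reporter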
# T1 sequence (P51843 whole entry): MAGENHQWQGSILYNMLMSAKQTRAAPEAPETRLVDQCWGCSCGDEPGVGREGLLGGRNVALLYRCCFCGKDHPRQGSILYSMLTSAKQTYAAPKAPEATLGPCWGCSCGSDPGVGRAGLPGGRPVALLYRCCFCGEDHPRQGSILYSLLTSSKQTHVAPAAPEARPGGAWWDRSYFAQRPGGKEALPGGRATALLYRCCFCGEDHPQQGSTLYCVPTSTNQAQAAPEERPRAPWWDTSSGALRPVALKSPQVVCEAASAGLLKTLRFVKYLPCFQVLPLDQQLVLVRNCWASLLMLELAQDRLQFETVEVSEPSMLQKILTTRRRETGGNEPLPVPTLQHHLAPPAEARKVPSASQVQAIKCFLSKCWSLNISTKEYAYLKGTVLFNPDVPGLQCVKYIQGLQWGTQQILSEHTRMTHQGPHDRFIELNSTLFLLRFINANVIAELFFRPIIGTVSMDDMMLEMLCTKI
# HeLa = assay: HeLa cell cytotoxicity, dose response, cytotoxicity control for MITF activator project, CellTiter-Glo luminescence, cherry-pick samples (AID 540259); type: functional, cell-based; conditions: Homo sapiens
# [13] = target: T2, Long-chain-fatty-acid--AMP ligase FadD28 (Mycobacterium tuberculosis, UniProt P9WQ59); assay: Fluorescence polarization aasay to screen for inhibitors that compete for the binding of FadD28 to a bisubstrate Measured in Biochemical System Using Plate Reader - 2147-01_Inhibitor_Dose_CherryPick_Activity.; type: functional, Mycobacterium tuberculosis H37Rv
# T2 sequence (P9WQ59 whole entry): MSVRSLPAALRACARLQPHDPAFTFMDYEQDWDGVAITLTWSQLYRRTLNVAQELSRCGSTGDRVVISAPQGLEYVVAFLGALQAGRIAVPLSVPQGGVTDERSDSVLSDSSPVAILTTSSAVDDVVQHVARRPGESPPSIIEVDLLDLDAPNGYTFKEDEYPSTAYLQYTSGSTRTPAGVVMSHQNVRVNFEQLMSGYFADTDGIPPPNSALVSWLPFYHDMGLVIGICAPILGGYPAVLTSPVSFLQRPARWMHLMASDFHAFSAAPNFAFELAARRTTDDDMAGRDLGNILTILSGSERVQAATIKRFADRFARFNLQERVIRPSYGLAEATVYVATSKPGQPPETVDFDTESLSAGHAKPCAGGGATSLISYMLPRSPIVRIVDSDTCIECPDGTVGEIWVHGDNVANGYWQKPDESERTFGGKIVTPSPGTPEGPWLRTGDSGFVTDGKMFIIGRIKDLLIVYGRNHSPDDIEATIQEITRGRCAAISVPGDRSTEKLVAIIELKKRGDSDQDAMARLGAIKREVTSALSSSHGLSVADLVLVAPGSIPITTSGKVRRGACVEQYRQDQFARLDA
# [14] = target: Metabotropic glutamate receptor 5 (Rattus norvegicus, UniProt P31424); assay: Identification of a glycine sulfonamide based non-MPEP site positive allosteric potentiator (PAM) of mGlu5 (calcium_assay).; type: functional
# Sequence of Metabotropic glutamate receptor 5 (P31424 whole entry): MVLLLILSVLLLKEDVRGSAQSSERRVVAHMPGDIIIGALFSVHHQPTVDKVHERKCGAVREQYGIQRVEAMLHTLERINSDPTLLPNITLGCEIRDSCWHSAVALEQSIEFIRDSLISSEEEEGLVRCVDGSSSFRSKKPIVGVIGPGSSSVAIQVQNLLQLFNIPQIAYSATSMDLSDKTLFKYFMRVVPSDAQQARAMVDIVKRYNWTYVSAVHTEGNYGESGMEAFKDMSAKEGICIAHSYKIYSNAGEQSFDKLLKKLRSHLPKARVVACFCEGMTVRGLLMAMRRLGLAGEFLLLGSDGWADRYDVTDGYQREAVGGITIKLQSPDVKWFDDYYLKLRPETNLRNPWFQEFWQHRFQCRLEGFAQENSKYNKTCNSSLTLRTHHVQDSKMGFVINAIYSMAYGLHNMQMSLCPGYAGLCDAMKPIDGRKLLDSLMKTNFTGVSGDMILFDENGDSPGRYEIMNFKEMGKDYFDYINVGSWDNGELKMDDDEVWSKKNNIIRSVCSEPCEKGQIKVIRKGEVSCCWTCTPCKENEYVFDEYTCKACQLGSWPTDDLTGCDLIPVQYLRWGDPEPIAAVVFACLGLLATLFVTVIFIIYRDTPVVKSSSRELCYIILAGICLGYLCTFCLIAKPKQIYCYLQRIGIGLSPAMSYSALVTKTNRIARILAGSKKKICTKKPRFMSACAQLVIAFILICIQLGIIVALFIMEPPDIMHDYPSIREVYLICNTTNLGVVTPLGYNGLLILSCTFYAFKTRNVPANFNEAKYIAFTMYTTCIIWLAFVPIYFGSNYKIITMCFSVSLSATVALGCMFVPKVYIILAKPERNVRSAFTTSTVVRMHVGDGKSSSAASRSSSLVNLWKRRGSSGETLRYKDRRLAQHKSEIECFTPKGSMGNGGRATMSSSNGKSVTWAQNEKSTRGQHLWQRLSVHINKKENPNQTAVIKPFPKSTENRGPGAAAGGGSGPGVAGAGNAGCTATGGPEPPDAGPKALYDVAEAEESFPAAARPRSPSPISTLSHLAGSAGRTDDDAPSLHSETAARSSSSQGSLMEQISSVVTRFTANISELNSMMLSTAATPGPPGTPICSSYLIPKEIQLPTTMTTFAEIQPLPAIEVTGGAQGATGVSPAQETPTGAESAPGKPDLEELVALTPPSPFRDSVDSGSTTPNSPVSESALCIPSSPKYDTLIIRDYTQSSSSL
# Protein Wnt-3a = Protein Wnt-3a (Mus musculus, UniProt P27467); assay: SAR analysis of small molecule antagonists of Gli-SUFU in a Wnt3a luminescent reporter assay.; type: functional
# Sequence of Protein Wnt-3a (P27467 whole entry): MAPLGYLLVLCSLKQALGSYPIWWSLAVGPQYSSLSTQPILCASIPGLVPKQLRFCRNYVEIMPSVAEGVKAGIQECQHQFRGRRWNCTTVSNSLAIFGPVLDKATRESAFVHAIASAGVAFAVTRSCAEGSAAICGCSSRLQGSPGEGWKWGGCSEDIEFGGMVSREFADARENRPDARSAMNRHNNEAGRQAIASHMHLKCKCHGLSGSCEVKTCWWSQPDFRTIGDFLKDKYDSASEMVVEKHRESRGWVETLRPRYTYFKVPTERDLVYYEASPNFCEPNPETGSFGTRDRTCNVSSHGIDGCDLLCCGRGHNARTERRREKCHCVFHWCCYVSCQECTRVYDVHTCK
# [15] = HeLa cell cytotoxicity, dose response, cytotoxicity control, 24 h, plate reader, dry powder (AID 686928); type: functional, cell-based
# Sequence of Paired box protein Pax-8 (Q06710 whole entry): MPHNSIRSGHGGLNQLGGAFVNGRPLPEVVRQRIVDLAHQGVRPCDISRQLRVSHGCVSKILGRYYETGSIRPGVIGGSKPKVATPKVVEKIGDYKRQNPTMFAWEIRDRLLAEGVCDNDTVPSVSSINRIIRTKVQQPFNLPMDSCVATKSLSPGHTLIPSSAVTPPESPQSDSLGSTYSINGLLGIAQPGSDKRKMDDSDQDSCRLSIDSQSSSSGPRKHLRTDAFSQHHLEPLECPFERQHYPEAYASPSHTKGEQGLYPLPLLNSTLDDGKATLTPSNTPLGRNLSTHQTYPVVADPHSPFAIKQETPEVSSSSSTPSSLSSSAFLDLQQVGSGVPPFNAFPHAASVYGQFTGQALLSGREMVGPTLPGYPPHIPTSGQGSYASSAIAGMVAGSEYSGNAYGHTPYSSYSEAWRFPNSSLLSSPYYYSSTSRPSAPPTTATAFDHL
smiles,measurement,setting,value
CN1c2ccc(-c3ccccc3)cc2[C@H]2[C@H](CCN2C(=O)NC2CCCCC2)[C@@H]1CO,AC50,Paired box protein Pax-8,11.5 µM (active)
same,AC50,[1],23.4 µM (active)
same,AC50,[2],53.9 µM (active)
same,AC50,[3],25.3 µM (active)
Cc1cccc(C)c1OCCNC(=O)C(=O)NCc1ccco1,AC50,[4],> 30 µM (inactive)
CC(C)N1CCN(C2=C(Nc3cccc(Br)c3)C(=O)c3ccccc3C2=O)CC1,AC50,[5],2.52 µM (active)
same,AC50,[6],48.5 µM (active)
same,AC50,[7],11.5 µM (active)
C[C@@H]1CN([C@@H](C)CO)C(=O)Cc2cc(NS(=O)(=O)c3ccc(Cl)cc3)ccc2O[C@H]1CN(C)Cc1ccc(Oc2ccccc2)cc1,AC50,[8],25.9 µM (active)
same,AC50,Paired box protein Pax-8,6.27 µM (active)
same,AC50,[1],22.5 µM (active)
same,AC50,[3],26.7 µM (active)
COC(=O)[C@@H]1CCCC[C@@H]1C(=O)N1CCc2ccccc2[C@H]1CN1C(=O)c2ccccc2C1=O,AC50,[9],> 52 µM (inactive)
CCc1cccc2c(C(=O)CN3C(=O)NC4(CCCCCC4)C3=O)c[nH]c12,IC50,cells,> 67.6 µM (inactive)
same,EC50,[10],> 91.2 µM (inactive)
same,EC50,[11],> 91.2 µM (inactive)
same,IC50,[12],> 67.6 µM (inactive)
same,AC50,HeLa,99.7 µM (active)
same,AC50,[13],4.33 µM (active)
CS(=O)(=O)N(CC(=O)NCC(F)(F)F)c1ccccc1Cl,EC50,[14],10 µM (inconclusive)
CCN(CC)c1cc(NC(=O)c2ccccc2F)ncn1,IC50,Protein Wnt-3a,0.172 µM (active)
CCCCCCCCCC(=O)[C@@H](O)CC.CCCCCCCCCC(=O)[C@H](O)CC,AC50,[15],> 200 µM (inactive)
